Experiments:
Assay type in all cases: in vivo
Phaedon cochleariae = Phaedon cochleariae spray test; conditions: 168 h, application rate 100 g/ha, larvae, after 7 days, read-out: efficacy
How it was run: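 Chinese cabbage leaf discs sprayed with compound formulated in solvent and water containing 1000 ppm emulsifier. Once dry, discs were populated with mustard beetle larvae. Percent kill scored after 7 days, 100% meaning all larvae dead and 0% none.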

Ctenocephalides felis [1] = assay: Ctenocephalides felis in vitro contact test with adult cat fleas; conditions: application rate 5 μg/cm^2 (=500 g/ha), adult cat fleas dead or moribund after 48 h, read-out: efficacy
Description: For the coating of the test tubes, 9 mg of active ingredient are first dissolved in 1 ml of acetone p.a. and then diluted to the desired concentration with acetone p.a. 250 μl of the solution are distributed homogeneously on the inner walls and the base of a 25 ml glass tube by turning and rocking on an orbital shaker (rocking rotation at 30 rpm for 2 h). With 900 ppm of active ingredient solution and internal surface area 44.7 cm^2, given homogeneous distribution, an area-based dose of 5 μg/cm^2 is achieved. After the solvent has evaporated off, the tubes are populated with 5-10 adult cat fleas (Ctenocephalides felis), sealed with a perforated plastic lid and incubated in a horizontal position at room temperature and ambient humidity. After 48 h, efficacy is determined. To this end, the tubes are stood upright and the fleas are knocked to the base of the tube. Fleas which remain motionless at the base or move in an uncoordinated manner are considered to be dead or moribund. […] 100% efficacy means that all the fleas were dead or moribund. 0% efficacy means that no fleas were harmed.

Myzus persicae [2] = assay: Myzus persicae oral test; conditions: 120 h, application rate 4 ppm, after 5 days, read-out: efficacy
How it was run: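 Compound formulation diluted with IPL41 insect medium (33%+15% sugar) and sealed under parafilm; mixed-population aphids feed through the membrane from a second plate. Mortality scored after 5 days as % efficacy (100% = all aphids killed, 0% = none).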

Ctenocephalides felis [3] = assay: Ctenocephalides felis oral test; conditions: 48 h, application rate 100 ppm in citrated cattle blood, kill after 2 days, read-out: efficacy
Description: Solvent: dimethyl sulfoxide To produce a suitable active ingredient formulation, 10 mg of active ingredient are mixed with 0.5 ml of dimethyl sulfoxide. Dilution with citrated cattle blood gives the desired concentration. About 20 unfed adult cat fleas (Ctenocephalides felis) are placed into a chamber which is closed at the top and bottom with gauze. A metal cylinder whose bottom end is closed with parafilm is placed onto the chamber. The cylinder contains the blood/active ingredient formulation, which can be imbibed by the fleas through the parafilm membrane. After 2 days, the kill in % is determined. 100% means that all of the fleas have been killed; 0% means that none of the fleas have been killed.

Spodoptera frugiperda = Spodoptera frugiperda spray test; conditions: foliar, 168 h, application rate 100 g/ha, maize leaf discs, caterpillars, after 7 days, read-out: efficacy
How it was run: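 Maize leaf discs sprayed with compound formulated in solvent plus water with 1000 ppm emulsifier, dried, then infested with fall armyworm caterpillars. Mortality scored after 7 days as % efficacy (100% = all caterpillars killed, 0% = none).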

Musca domestica = Musca domestica test; conditions: application rate 100 ppm; adult houseflies, kill after 2 days
Description: Solvent: dimethyl sulfoxide To produce a suitable active ingredient formulation, 10 mg of active ingredient are mixed with 0.5 ml of dimethyl sulfoxide, and the concentrate is diluted with water to the desired concentration. Vessels containing a sponge treated with sugar solution and the desired concentration of active ingredient formulation are populated with 10 adult houseflies (Musca domestica). After 2 days, the kill in % is determined. 100% means that all of the flies have been killed; 0% means that none of the flies have been killed.

Myzus persicae [4] = assay: Myzus persicae spray test; conditions: foliar, 120 h, application rate 100 g/ha, Chinese cabbage leaf discs, after 5 days, read-out: efficacy
How it was run: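 Chinese cabbage leaf discs infested with all aphid stages sprayed with compound formulated in emulsifier-containing water (1000 ppm emulsifier). Efficacy (% aphids killed; 100% = all killed) determined after 5 days.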

Lucilia cuprina = Lucilia cuprina test; conditions: 48 h, application rate 100 ppm, L1 larvae, kill after 2 days, read-out: efficacy
Description: Solvent: dimethyl sulfoxide To produce a suitable active ingredient formulation, 10 mg of active ingredient are mixed with 0.5 ml of dimethyl sulfoxide, and the concentrate is diluted with water to the desired concentration. About 20 L1 larvae of the Australian sheep blowfly (Lucilia cuprina) are transferred into a test vessel containing minced horsemeat and the active ingredient formulation of the desired concentration. After 2 days, the kill in % is determined. 100% means that all the larvae have been killed; 0% means that no larvae have been killed.

Tetranychus urticae = Tetranychus urticae spray test, OP-resistant; conditions: foliar, 144 h, bean leaf discs, after 6 days, read-out: efficacy
Description: [table] To produce a suitable active ingredient formulation, 1 part by weight of active ingredient is dissolved with the specified parts by weight of solvent and made up to the desired concentration with water containing an emulsifier concentration of 1000 ppm. To produce further test concentrations, the formulation is diluted with emulsifier-containing water. Discs of bean leaves (Phaseolus vulgaris) infested with all stages of the greenhouse red spider mite (Tetranychus urticae) are sprayed with an active ingredient formulation of the desired concentration. After 6 days, the efficacy in % is determined. 100% means that all the spider mites have been killed; 0% means that no spider mites have been killed.

Boophilus microplus = Boophilus microplus injection test; conditions: application rate 20 μg/animal, injected; laying of fertile eggs assessed after 7 days
Description: Solvent: dimethyl sulfoxide To produce a suitable active ingredient formulation, 10 mg of active ingredient are mixed with 0.5 ml of solvent and the concentrate is diluted to the desired concentration with solvent. 1 μl of the active ingredient solution is injected into the abdomen of 5 engorged adult female cattle ticks (Boophilus microplus). The animals are transferred into dishes and kept in a climate-controlled room. Efficacy is assessed after 7 days by laying of fertile eggs. Eggs which are not visibly fertile are stored in a climate-controlled cabinet until the larvae hatch after about 42 days. An efficacy of 100% means that none of the ticks has laid any fertile eggs; 0% means that all the eggs are fertile.

| Structure (SMILES) | pest or weed control at 100 g/ha (Phaedon cochleariae) [%] | pest or weed control at 5 µg/cm2, 500 g/ha (Ctenocephalides felis [1]) [%] | pest or weed control at 4 ppm (Myzus persicae [2]) [%] | pest or weed control at 100 ppm (Ctenocephalides felis [3]) [%] | pest or weed control at 100 g/ha (Spodoptera frugiperda) [%] | efficacy (Musca domestica) [%] | pest or weed control at 100 g/ha (Myzus persicae [4]) [%] | pest or weed control at 100 ppm (Lucilia cuprina) [%] | pest or weed control at 20 g/ha (Tetranychus urticae; application rate 20 g/ha) [%] | pest or weed control at 100 g/ha (Tetranychus urticae; application rate 100 g/ha) [%] | efficacy (Boophilus microplus) [%] |
| --- | --- | --- | --- | --- | --- | --- | --- | --- | --- | --- | --- |
| CCS(=O)(=O)c1c(-c2nc3cc(C(F)(F)F)ncc3n2C)nc(-c2cncc(F)c2)n1C [Example I-018] | 100 | 100 | 100 | 100 | 83 | 80 | 100 | 100 |  |  |  |
| CCS(=O)(=O)c1c(-c2nc3cc(C(F)(F)F)ncc3n2C)nc(-c2ccn[nH]2)n1C [Example I-049] | 100 |  | 100 | 80 |  | 80 | 90 | 100 | 90 | 90 |  |
| CCn1c(-c2ccccc2)nc(-c2nc3cc(C(F)(F)F)ncc3n2C)c1S(=O)(=O)CC [Example I-009] |  | 100 | 100 | 95 |  | 80 | 90 | 100 |  |  |  |
| CCS(=O)(=O)c1c(-c2nc3cc(C(F)(F)F)ncc3n2C)nc(-c2ccc(Cl)cc2)n1C [Example I-005] | 100 | 100 | 100 | 100 | 100 | 100 | 90 | 100 |  |  |  |
| CCNC(=O)c1nc(-c2nc3cc(C(F)(F)F)ncc3n2C)c(S(=O)(=O)CC)n1C [Example I-041] | 100 |  | 100 |  |  |  | 90 |  |  |  | 100 |
| CCS(=O)(=O)c1c(-c2nc3cc(C(F)(F)F)ncc3n2C)nc(-c2ccc(F)nc2)n1C [Example I-019, 2-[5-(Ethylsulfonyl)-2-(6-fluoropyridin-3-yl)-1-methyl-1H-imidazol-4-yl]-3-methyl-6-(trifluoromethyl)-3H-imidazo[4,5-c]pyridine] | 100 | 100 | 100 | 95 | 100 | 100 | 100 | 100 |  |  |  |
| CCS(=O)(=O)c1c(-c2nc3cc(C(F)(F)F)ncc3n2C)nc(-c2cccnc2)n1C [Example I-016] |  |  | 100 |  |  |  | 100 | 100 |  |  | 90 |
| CCS(=O)(=O)c1c(-c2nc3cc(C(F)(F)F)ncc3n2C)nc(-c2cccc(Cl)n2)n1C [Example I-014, 2-[2-(6-Chloropyridin-2-yl)-5-(ethylsulfonyl)-1-methyl-1H-imidazol-4-yl]-3-methyl-6-(trifluoromethyl)-3H-imidazo[4,5-c]pyridine] | 100 | 100 | 100 | 100 | 100 | 80 | 100 | 100 |  |  |  |
